For assay [1], the target named is T1, Axl (Homo sapiens, UniProt P30530).
T1 sequence (P30530 26-894): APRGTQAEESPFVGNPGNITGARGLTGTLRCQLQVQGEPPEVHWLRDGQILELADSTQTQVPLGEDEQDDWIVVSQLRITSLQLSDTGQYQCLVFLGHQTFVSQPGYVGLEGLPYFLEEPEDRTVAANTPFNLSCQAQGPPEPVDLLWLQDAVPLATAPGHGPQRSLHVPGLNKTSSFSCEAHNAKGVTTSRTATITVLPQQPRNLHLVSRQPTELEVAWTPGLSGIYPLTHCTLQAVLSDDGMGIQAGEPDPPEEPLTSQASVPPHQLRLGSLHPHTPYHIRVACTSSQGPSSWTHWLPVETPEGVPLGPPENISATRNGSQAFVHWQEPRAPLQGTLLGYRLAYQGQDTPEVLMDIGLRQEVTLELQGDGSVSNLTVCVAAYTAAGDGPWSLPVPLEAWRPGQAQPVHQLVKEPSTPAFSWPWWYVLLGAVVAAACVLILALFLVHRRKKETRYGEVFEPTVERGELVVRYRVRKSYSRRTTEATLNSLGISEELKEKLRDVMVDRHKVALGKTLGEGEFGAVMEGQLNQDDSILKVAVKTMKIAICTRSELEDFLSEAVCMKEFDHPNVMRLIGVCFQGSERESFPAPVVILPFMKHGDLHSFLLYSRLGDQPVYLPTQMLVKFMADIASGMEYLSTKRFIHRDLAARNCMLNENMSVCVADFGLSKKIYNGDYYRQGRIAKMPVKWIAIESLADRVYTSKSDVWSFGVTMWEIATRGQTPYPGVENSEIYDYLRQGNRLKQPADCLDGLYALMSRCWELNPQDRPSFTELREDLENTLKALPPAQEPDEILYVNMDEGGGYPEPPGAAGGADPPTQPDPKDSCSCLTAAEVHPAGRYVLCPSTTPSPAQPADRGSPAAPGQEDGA
The assay can be described thus: Axl NanoBRET intracellular kinase assay (Cell Binding). Also noted: host or cells: HEK-293. Particulars: HEK-293 cells transfected with Axl-NanoLuc fusion vector; displacement of K-5 NanoBRET tracer. The method, boiled down: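 BRET ratio (610 nm/450 nm) decrease from K-5 tracer displacement gave binding; IC50 by 4-parameter non-linear regression of percent activity. Live HEK-293 cells expressed transiently transfected Axl-NanoLuc. Compound 1 h, then 0.35 μM tracer 2 h, both 37 °C, 5% CO2.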
(Bioluminescence resonance energy transfer reports proximity on the nanometre scale.)

Assay [2] addresses T1, Axl. The assay can be described thus: HTRF KinEASE-TK biochemical potency, AXL. On the set-up: purchased Invitrogen. Particulars: 5 nM AXL, 700 μM ATP. The procedure, abridged: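 Enzyme preincubated with compound 1 h at RT; final 5 nM AXL or 1 nM TYRO3/MER, 800 nM TK substrate-biotin, 700 μM ATP, HEPES pH 7.4, MgCl2, 1% DMSO, 2 h at RT. HTRF 665/620 ratio read after streptavidin-XL665/cryptate antibody detection; percent activity relative to DMSO and pre-stopped controls.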

Drawing on patent US20240226115A1, “AXL INHIBITOR COMPOUNDS” (ARCUS BIOSCIENCES, INC., priority 2021, published 2024), this text covers IC50 for one compound.

`C[C@@H]1CCCN1C1CCc2ccc(-c3cnc4[nH]nc(-c5ccc6c(c5)OCCNS6(=O)=O)c4c3)cc2CC1` (stereo partly drawn) [Example 66, 7-(5-{7-[(2R)-2-Methylpyrrolidin-1-yl]-6,7,8,9-tetrahydro-5H-benzo[7]annulen-2-yl}-1H-pyrazolo[3,4-b]pyridin-3-yl)-3,4-dihydro-2H-5,12,2-benzoxathiazepine-1,1-dione]: the IC50 on Axl [1] and at Axl [2] was less than 100 nM throughout.

The term IC50 denotes the concentration that gives 50% inhibition.
